Reference: ChEMBL document CHEMBL1777754, “Synthesis and crystallographic analysis of new sulfonamides incorporating NO-donating moieties with potent antiglaucoma action” (Bioorg Med Chem Lett, 2011)

Legend:
Carbonic anhydrase 12 = Carbonic anhydrase 12 (Homo sapiens, UniProt O43570)
Description: Inhibition of human recombinant CA12 catalytic domain by CO2 hydration assay

Carbonic anhydrase 1 = Carbonic anhydrase 1 (Homo sapiens, UniProt P00915)
Description: Inhibition of human CA1 by CO2 hydration assay

Carbonic anhydrase 9 = Carbonic anhydrase 9 (Homo sapiens, UniProt Q16790)
Description: Inhibition of human recombinant CA9 catalytic domain by CO2 hydration assay

Carbonic anhydrase 4 = Carbonic anhydrase 4 (Homo sapiens, UniProt P22748)
Sequence of Carbonic anhydrase 4 (P22748 whole entry): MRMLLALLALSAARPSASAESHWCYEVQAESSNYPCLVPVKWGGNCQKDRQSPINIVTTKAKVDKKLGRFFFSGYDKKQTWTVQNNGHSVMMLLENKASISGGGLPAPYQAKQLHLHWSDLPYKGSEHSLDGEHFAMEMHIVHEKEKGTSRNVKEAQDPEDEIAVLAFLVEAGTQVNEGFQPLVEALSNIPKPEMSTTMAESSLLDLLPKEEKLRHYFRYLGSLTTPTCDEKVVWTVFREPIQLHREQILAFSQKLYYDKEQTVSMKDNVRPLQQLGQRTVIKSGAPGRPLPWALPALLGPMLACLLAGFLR
Description: Inhibition of human CA4 by CO2 hydration assay

Carbonic anhydrase 2 = Carbonic anhydrase 2 (Homo sapiens, UniProt P00918)
Description: Inhibition of human CA2 by CO2 hydration assay

Oryctolagus cuniculus [1] = assay: Antiglaucoma activity in New Zealand rabbits assessed as inhibition of carbomer-induced ocular hypertension at 2 % in 50 uL administered into eye after 2 to 3 weeks of carbomer challenge (reference value: 35.3 +/- 1.2 mmHg); type: functional
[2] = Solubility of the compound in water; type: physicochemical; conditions: buffer
Oryctolagus cuniculus [3] = assay: Antiglaucoma activity in New Zealand rabbits assessed as inhibition of carbomer-induced ocular hypertension at 2 % in 50 uL administered into eye after 2 to 3 weeks of carbomer challenge (reference value: 34.2 +/- 1.4 mmHg); type: functional

Sequence of Carbonic anhydrase 12 (O43570 whole entry): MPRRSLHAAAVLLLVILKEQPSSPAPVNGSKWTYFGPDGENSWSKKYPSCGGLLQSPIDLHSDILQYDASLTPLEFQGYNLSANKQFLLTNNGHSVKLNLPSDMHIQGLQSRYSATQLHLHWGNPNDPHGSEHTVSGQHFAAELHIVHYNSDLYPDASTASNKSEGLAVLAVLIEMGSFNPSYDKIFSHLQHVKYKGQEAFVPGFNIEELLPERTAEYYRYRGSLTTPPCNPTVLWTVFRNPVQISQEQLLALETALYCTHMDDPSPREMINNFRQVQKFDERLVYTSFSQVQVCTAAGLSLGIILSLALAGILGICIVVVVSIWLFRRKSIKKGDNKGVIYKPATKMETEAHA
Sequence of Carbonic anhydrase 1 (P00915 whole entry): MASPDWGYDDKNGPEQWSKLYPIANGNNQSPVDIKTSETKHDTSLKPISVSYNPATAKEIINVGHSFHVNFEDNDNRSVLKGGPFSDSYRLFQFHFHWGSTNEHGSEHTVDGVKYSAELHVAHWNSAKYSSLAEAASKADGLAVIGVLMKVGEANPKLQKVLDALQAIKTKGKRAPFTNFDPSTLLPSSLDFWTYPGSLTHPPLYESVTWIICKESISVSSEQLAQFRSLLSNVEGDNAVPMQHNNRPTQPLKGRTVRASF

| Ki (Carbonic anhydrase 12) | Ki (Carbonic anhydrase 1) | Ki (Carbonic anhydrase 9) | Ki (Carbonic anhydrase 4) | Ki (Carbonic anhydrase 2) | solubility [2] | Compound | Activity (Oryctolagus cuniculus [1]) | Activity (Oryctolagus cuniculus [3]) |
| --- | --- | --- | --- | --- | --- | --- | --- | --- |
| 31 nM | 40 nM | 235 nM | 154 nM |  |  | NS(=O)(=O)c1nnc(NS(=O)(=O)c2cccc(C(=O)OCCCCO[N+](=O)[O-])c2)s1 |  |  |
|  |  |  |  | 1.4 nM |  | CCN(CC)CCOC(=O)c1ccc(S(=O)(=O)Nc2nnc(S(N)(=O)=O)s2)cc1 |  |  |
| 83 nM | 587 nM | 83 nM | 148 nM | 88 nM |  | NS(=O)(=O)c1ccc(OCCCO[N+](=O)[O-])cc1 |  |  |
| 29 nM | 41 nM | 25 nM | 76 nM | 12 nM |  | NS(=O)(=O)c1ccc(OCCCCO[N+](=O)[O-])cc1 |  |  |
| 42 nM | 137 nM | 177 nM | 225 nM | 33 nM |  | COc1cc(/C=C/C(=O)OCCCCO[N+](=O)[O-])ccc1OC(=O)c1cccc(S(=O)(=O)Nc2nnc(S(N)(=O)=O)s2)c1 |  |  |
|  |  |  |  |  |  | O=[N+]([O-])O[C@@H]1CO[C@H]2[C@@H]1OC[C@@H]2O [ISOSORBIDE MONONITRATE] | 28.4 mmHg |  |
| 31 nM | 32 nM | 10 nM | 46 nM | 10 nM |  | NS(=O)(=O)c1nnc(NS(=O)(=O)c2ccc(C(=O)OCCCCO[N+](=O)[O-])cc2)s1 |  |  |
| 19 nM | 15 nM | 11 nM | 47 nM | 10 nM | > 0.3% | COc1cc(/C=C/C(=O)OCCCCO[N+](=O)[O-])ccc1OC(=O)c1ccc(S(N)(=O)=O)cc1 |  |  |
| 43 nM | 43 nM | 11 nM | 38 nM | 14 nM |  | COc1cc(/C=C/C(=O)OCCCCO[N+](=O)[O-])ccc1OC(=O)c1ccc(S(=O)(=O)Nc2nnc(S(N)(=O)=O)s2)cc1 |  |  |
| 87 nM | 395 nM | 93 nM | 139 nM | 101 nM |  | COc1cc(/C=C/C(=O)OCCCCO[N+](=O)[O-])ccc1OC(=O)CCc1ccc(S(N)(=O)=O)cc1 |  |  |
| 147 nM | 242 nM | 253 nM | 345 nM | 198 nM |  | NS(=O)(=O)c1ccc(C(=O)OCc2ccc(CO[N+](=O)[O-])cc2)cc1 |  |  |
| 30 nM | 189 nM | 165 nM | 44 nM | 18 nM | 2% | NS(=O)(=O)c1ccc(C(=O)OCCCCO[N+](=O)[O-])cc1 |  | 20.6 mmHg |

| Compound | Ki (Carbonic anhydrase 12) | Ki (Carbonic anhydrase 1) | Ki (Carbonic anhydrase 9) | Ki (Carbonic anhydrase 4) | Ki (Carbonic anhydrase 2) | solubility [2] | Activity (Oryctolagus cuniculus [1]) | Activity (Oryctolagus cuniculus [3]) |
| --- | --- | --- | --- | --- | --- | --- | --- | --- |
| NS(=O)(=O)c1ccc(OCCCCCO[N+](=O)[O-])cc1 | 116 nM | 950 nM | 85 nM | 89 nM | 71 nM |  |  |  |
